From PubChem BioAssay (NCI) come the findings set out here.

Some test systems named below: SF-295 CNS; HCT-15 colon; SF-268 CNS; OVCAR-4 ovarian; CCRF-CEM leukemia; UACC-62 melanoma; ACHN renal; RPMI-8226 leukemia; PC-3 prostate.
Common to all, as to assay: NCI anticancer screen, dose series, 48 h

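All cell lines were grown in 96-well plates and treated with compound for 48 hours. Here, GI50 denotes the concentration required for 50% inhibition of growth. TGI denotes the concentration required for complete inhibition of growth.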

With `CCOC(=O)C1Nc2ccccc2[C@H]2OCC[C@@H]12` (some centres undefined), the TGI with SF-295 CNS, in the test on HCT-15 colon, in the test with SF-268 CNS, with OVCAR-4 ovarian, with CCRF-CEM leukemia and in the test on UACC-62 melanoma was over 100 µM in each case. Further, in the test on ACHN renal, the TGI was over 100 µM.

For the compound `CCCC(S(=O)(=O)c1ccccc1)S(=O)(=O)c1ccccc1`, the TGI in the test with SF-295 CNS, in the test on RPMI-8226 leukemia, in the test on HCT-15 colon, with OVCAR-4 ovarian, with CCRF-CEM leukemia and with UACC-62 melanoma was over 100 µM each time. The compound further showed a TGI in the test with ACHN renal of over 100 µM.

On to `O=C(/C=C/c1ccc(Cl)c(Cl)c1)c1cccc2ccccc12`, for which the TGI with SF-295 CNS was 24.5 µM; in the test with RPMI-8226 leukemia it was 8.53 µM; with HCT-15 colon, 7.12 µM; in the test on SF-268 CNS, 14.2 µM; with OVCAR-4 ovarian it was 20.7 µM; in the test on CCRF-CEM leukemia it was 7.18 µM. Moreover, the TGI is 25.5 µM in the test on UACC-62 melanoma and 30 µM with ACHN renal.

Regarding `CC1=C(CC2C(=O)N(c3ccccc3)S(=O)(=O)NC2C)C(=O)N(c2ccccc2)S(=O)(=O)N1C` (centres undefined), the TGI in the test with SF-295 CNS, with RPMI-8226 leukemia, with HCT-15 colon, in the test on SF-268 CNS, in the test with OVCAR-4 ovarian and in the test with CCRF-CEM leukemia was over 100 µM throughout. Further, the TGI with UACC-62 melanoma and in the test on ACHN renal was over 100 µM throughout.

On to `Oc1cccc2c1NCCC2`, for which the GI50 is 0.139 µM in the test with SF-295 CNS; 0.119 µM with PC-3 prostate; 0.12 µM with RPMI-8226 leukemia; 0.19 µM with HCT-15 colon; 0.244 µM in the test on SF-268 CNS; 1.65 µM in the test on OVCAR-4 ovarian. Moreover, the values for the GI50 in the test on CCRF-CEM leukemia, in the test on UACC-62 melanoma and in the test on ACHN renal were 0.219 µM, 0.144 µM and 0.127 µM, respectively. Besides, the TGI in the test with SF-295 CNS was over 22.6 µM; in the test with PC-3 prostate, over 100 µM; with RPMI-8226 leukemia, over 100 µM; in the test on HCT-15 colon, over 100 µM; in the test with SF-268 CNS it was over 67.2 µM; with OVCAR-4 ovarian it was over 100 µM. Also, the TGI in the test on CCRF-CEM leukemia was over 100 µM; in the test with UACC-62 melanoma, 4.51 µM; with ACHN renal, over 70.7 µM.

Regarding `COc1ccc(OC(=O)CC2Cc3cc(OC)c(OC)c(OC)c3-c3ccc(SC)c(=O)cc32)cc1` (centres undefined), the TGI with RPMI-8226 leukemia is 14.4 µM; with HCT-15 colon, over 37.7 µM; in the test with SF-268 CNS, over 100 µM; in the test with OVCAR-4 ovarian, over 100 µM; in the test on CCRF-CEM leukemia, 10.1 µM; with UACC-62 melanoma, 21 µM. This compound came in with a TGI in the test with ACHN renal of over 57.7 µM.

For `CCOC(=O)/C(I)=C/c1cc(OC)c(OC)c(OC)c1`, the TGI with SF-295 CNS was 54.4 µM; with RPMI-8226 leukemia, 21.1 µM; with HCT-15 colon, 17.1 µM; with SF-268 CNS, 6.73 µM; with OVCAR-4 ovarian, 52.4 µM; with CCRF-CEM leukemia, 8.6 µM. In addition, the TGI was 16.1 µM in the test on UACC-62 melanoma and 28.2 µM in the test with ACHN renal.

With `N[C@H](COCc1ccccc1)c1ccccc1`, the TGI in the test on SF-295 CNS is 82.5 µM; in the test with RPMI-8226 leukemia, 45.2 µM; in the test with HCT-15 colon, over 79.4 µM; in the test with SF-268 CNS, over 100 µM; in the test with OVCAR-4 ovarian, over 100 µM; with CCRF-CEM leukemia, 56.6 µM. For the same compound, the TGI was over 100 µM in the test on UACC-62 melanoma and over 91.4 µM in the test with ACHN renal.

On to `CC1=NN(c2ccccc2)C(=O)/C1=C\c1ccc([N+](=O)[O-])cc1`, for which the TGI is 68.9 µM in the test with SF-295 CNS; 57.2 µM with RPMI-8226 leukemia; over 100 µM in the test with HCT-15 colon; over 100 µM in the test with SF-268 CNS; 42.2 µM with OVCAR-4 ovarian; 49.5 µM with CCRF-CEM leukemia. The figures for the TGI in the test on UACC-62 melanoma and in the test with ACHN renal were 53.3 µM and over 100 µM, respectively.

Take `CC1=C(C(=O)Nc2ccc(Cl)c(Cl)c2)C(c2ccc([N+](=O)[O-])cc2)C(C(=O)Nc2ccc(Cl)c(Cl)c2)=C(C)N1`: the TGI in the test on SF-295 CNS turned out to be 9.24 µM; in the test with RPMI-8226 leukemia, 8.63 µM; in the test with HCT-15 colon it was 7.88 µM; in the test with SF-268 CNS, 14.8 µM; in the test with OVCAR-4 ovarian, 11.8 µM; in the test on UACC-62 melanoma, 4.46 µM. In the test on ACHN renal, this compound gave a TGI of 16.9 µM.

With `N#CC1(C#N)C(c2ccccc2)C=CC12OCCCO2` (centres undefined), the TGI with SF-295 CNS was over 100 µM; with RPMI-8226 leukemia, 91.7 µM; in the test with SF-268 CNS it was over 100 µM; in the test on OVCAR-4 ovarian it was over 100 µM; with CCRF-CEM leukemia it was 88.7 µM; in the test on UACC-62 melanoma, over 100 µM. This compound came in with a TGI in the test on ACHN renal of over 100 µM.

On to `O=C(Cc1nc2ccccc2o1)C(=O)Nc1cccc(C(F)(F)F)c1`, for which the TGI with SF-295 CNS, in the test with RPMI-8226 leukemia, in the test with HCT-15 colon, in the test with SF-268 CNS, with OVCAR-4 ovarian and with CCRF-CEM leukemia was over 100 µM in each case. In addition, the TGI in the test on UACC-62 melanoma and in the test with ACHN renal was over 100 µM in each case.

Turning to `COc1ccc(-c2[nH]c3ccccc3c2CCNS(=O)(=O)c2ccc(C)cc2)cc1`, the TGI in the test on SF-295 CNS, in the test with RPMI-8226 leukemia, in the test on HCT-15 colon, in the test on SF-268 CNS, in the test on CCRF-CEM leukemia and with UACC-62 melanoma was over 10 µM in each case. In the test with ACHN renal, this compound registered a TGI of over 10 µM.

Turning to `N#CNc1nc(N)c(-c2ccc(Cl)cc2)c(C(=O)Nc2nccs2)n1`, the TGI in the test on SF-295 CNS, in the test on RPMI-8226 leukemia, in the test with HCT-15 colon, in the test with SF-268 CNS, with OVCAR-4 ovarian and in the test with UACC-62 melanoma was over 100 µM each time. The TGI with ACHN renal was over 100 µM.

As for `Cc1cc(=O)c2c(O)cc3c(c2o1)CC=C(COC1OC(COC2OC(CO)C(O)C(O)C2O)C(O)C(O)C1O)CO3` (centres undefined), the TGI in the test with SF-295 CNS, with HCT-15 colon, in the test on SF-268 CNS, in the test on OVCAR-4 ovarian, in the test with CCRF-CEM leukemia and with UACC-62 melanoma was over 100 µM in each case. The TGI in the test on ACHN renal was over 100 µM.

Consider `O=C1C=C(O)C(=Cc2c(O)cc(O)cc2O)C(O)=C1`, for which the TGI in the test with SF-295 CNS, in the test on RPMI-8226 leukemia, with HCT-15 colon, in the test with SF-268 CNS, with OVCAR-4 ovarian and in the test on CCRF-CEM leukemia was over 100 µM each time. Besides, the TGI in the test on UACC-62 melanoma was over 100 µM.
